Measured values taken from publication PMC7770212 (Journal of Psychopharmacology (Oxford, England), 2020).

Experiments:
[1] = test system: striatal dopamine D2 receptors; settings: 0.5 mg/kg/day subcutaneous delivery; ref Kapur et al., 2003; cited from earlier work
AMPH-sensitized rats = test: Pre-pulse inhibition; format: in vivo, rat; settings: HAL 0.1 mg/kg/day i.c.v. mini pump, day 7; versus AMPH-VEH
psychotic-like rats = test: Pilot study: continuous HAL into the lateral ventricle; format: in vivo, rat; settings: data not shown

O=C(CCCN1CCC(O)(c2ccc(Cl)cc2)CC1)c1ccc(F)cc1 [HAL, Haloperidol]
striatal dopamine D2 receptor occupancy [1]: 73%
PPI of the acoustic startle response (AMPH-sensitized rats): clearly improved PPI
alleviation of psychotic-like symptoms (psychotic-like rats; 0.1 mg/kg/day continuous i.c.v. versus 0.01 or 0.03 mg/kg/day): significantly more effective
extrapyramidal side effects (psychotic-like rats; 0.1 mg/kg/day continuous i.c.v.): without causing extrapyramidal side effects
